We go through 44 compounds from ChEMBL document CHEMBL5729205, “Rho-associated protein kinase inhibitor, pharmaceutical composition comprising same, and preparation method and use thereof” (2022).

The target of this experiment is Rho-associated protein kinase 2 (Homo sapiens, UniProt O75116). Nature of the experiment: Biological Assay: The kinase IC50 was determined by a commercialized CISBIO kinase detection kit, HTRF KinEASE-STK S2 kit (62ST2PEC). ROCK2 (01-119) employed in the reaction was purchased from Carna Biosciences.Before the assay, the following working solutions as needed were formulated with corresponding reagents according to the instruction of the kinase detection kit: 1×kinase buffer, 5×STK-52 substrate working solution (1.5 μM) and 5×ATP working solution (1.5 μM), 5×ROCK2 kinase working solution, 4×Streptavidin-XL665 working solution, and 4×STK-Ab-Cryptate 2 detection solution. Then the assay was performed according to the following procedure.A solution of a compound at a concentration of 10000 nM was prepared with the 1×kinase buffer containing 2.5% DMSO. Gradient dilution of the solution of the compound was performed with the kinase buffer containing DMSO, so as to obtain solutions of a test compound at 9 different concentrations. In addition to wells of test compounds, a positive well (containing all the reagents except the compound) and a negative well (containing all the reagents except the test compound and kinase) were set. Except for the control wells (positive and negative wells), a solution of a test compound (4 μL) was added to each of the reaction wells, and a solution of 2.5% DMSO was added to the control wells. Then the substrate (2 μM, i.e., 2 μL. 5×STK-S2 substrate working solution) was added to each of the reaction wells. The 5×ROCK2 kinase working solution (2 μL, containing 1.4 ng ROCK2 kinase) was added to each of the reaction wells except for the negative well, the volume of which was made up with the 1×kinase buffer (2 μL). The 5×ATP working solution (2 μL) was added to each of the reaction wells, and the mixtures were incubated at room temperature for 2 hours. After the kinase reaction was complete, the 4×Streptavidin-XL665 working solution was added to each of the reaction wells, the solutions were mixed, followed by immediate addition of the 4×STK-Ab-Cryptate 2 detection solution (5 μL), and the mixtures were incubated at room temperature for 1 hour. The fluorescence signal was read on ENVISION (Perkinelmer) (excitation wavelength: 320 nm, and emission wavelength: 665 nm and 615 nm). The inhibitory rate in each well was calculated based on the fluorescence intensity value: ER (Emission Ratio)=(fluorescence intensity at 665 nm/fluorescence intensity at 615 nm); inhibitory rate=(ERpositive−ERtest compound)/(ERpositive−ERnegative)*100%. Curves were plotted and fitted to obtain the median inhibitory concentration (IC50) of each teat compound with the PRISM 5.0 software.
Chain of Rho-associated protein kinase 2 (O75116 whole entry): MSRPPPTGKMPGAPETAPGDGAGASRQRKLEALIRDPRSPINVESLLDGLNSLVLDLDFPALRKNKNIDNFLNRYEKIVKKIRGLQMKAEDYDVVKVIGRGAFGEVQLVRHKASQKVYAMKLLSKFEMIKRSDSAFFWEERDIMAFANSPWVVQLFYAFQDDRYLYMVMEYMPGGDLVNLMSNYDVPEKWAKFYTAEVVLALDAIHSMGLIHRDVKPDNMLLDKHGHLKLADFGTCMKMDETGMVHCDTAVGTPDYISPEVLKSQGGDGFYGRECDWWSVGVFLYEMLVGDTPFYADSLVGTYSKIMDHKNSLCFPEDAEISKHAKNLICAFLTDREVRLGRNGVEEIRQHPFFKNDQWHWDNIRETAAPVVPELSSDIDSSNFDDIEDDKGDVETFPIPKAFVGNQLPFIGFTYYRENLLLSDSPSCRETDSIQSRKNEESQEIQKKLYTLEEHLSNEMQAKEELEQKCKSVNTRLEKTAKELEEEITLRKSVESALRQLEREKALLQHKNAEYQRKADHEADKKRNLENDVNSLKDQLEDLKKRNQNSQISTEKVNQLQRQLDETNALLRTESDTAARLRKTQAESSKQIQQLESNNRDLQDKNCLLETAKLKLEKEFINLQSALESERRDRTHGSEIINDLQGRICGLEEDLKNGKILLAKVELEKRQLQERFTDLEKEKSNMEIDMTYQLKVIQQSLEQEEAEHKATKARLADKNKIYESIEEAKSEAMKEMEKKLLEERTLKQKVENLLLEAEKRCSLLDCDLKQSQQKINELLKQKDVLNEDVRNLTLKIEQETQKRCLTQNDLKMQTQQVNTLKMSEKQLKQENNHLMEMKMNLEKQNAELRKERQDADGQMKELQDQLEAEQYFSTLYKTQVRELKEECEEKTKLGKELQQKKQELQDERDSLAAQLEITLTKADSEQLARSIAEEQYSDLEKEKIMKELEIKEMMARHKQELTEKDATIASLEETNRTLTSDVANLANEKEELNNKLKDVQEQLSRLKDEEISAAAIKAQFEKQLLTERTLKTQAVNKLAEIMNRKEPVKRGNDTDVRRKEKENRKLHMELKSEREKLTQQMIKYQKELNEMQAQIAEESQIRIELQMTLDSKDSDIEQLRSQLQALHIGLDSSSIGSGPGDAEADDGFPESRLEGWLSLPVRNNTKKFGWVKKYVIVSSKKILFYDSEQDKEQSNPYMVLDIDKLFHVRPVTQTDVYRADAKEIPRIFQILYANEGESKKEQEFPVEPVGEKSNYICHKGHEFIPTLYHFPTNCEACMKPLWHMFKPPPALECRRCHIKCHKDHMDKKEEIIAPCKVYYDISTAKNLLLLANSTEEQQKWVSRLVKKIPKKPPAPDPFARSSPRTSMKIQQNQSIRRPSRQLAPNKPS
Usually IC50 stands for the concentration at which inhibition is half-maximal. Turning to `O=C(c1cc2ccc(-c3nccc(Nc4ccc(-c5cn[nH]c5)cc4)n3)cc2n1CC(F)F)N1CC(F)(F)C1`, the IC50 was 0.159 µM.
For `N=C(N)N1CCC2(CC1)CCN(C(=O)c1cc3ccc(-c4nccc(Nc5ccc6[nH]ncc6c5)n4)cc3[nH]1)CC2`, the IC50 is 0.24 µM.
In the case of `Cn1c(C(=O)N2CC(F)(F)C2)cc2ccc(-c3nc4c(c(Nc5ccc(-c6cn[nH]c6)cc5)n3)CNC4)cc21`, the IC50 is 0.004 µM.
The figure for `COCCn1c(C(=O)N2CC(F)(F)C2)cc2ccc(-c3nccc(Nc4ccc(-c5cn[nH]c5)cc4)n3)cc21` is 0.355 µM; for `O=C(c1cc2ccc(-c3nccc(Nc4ccc5[nH]ncc5c4)n3)cc2[nH]1)N1CC2CNCC2C1` (centres undefined) it is 0.412 µM.
For `O=C(C1CC(F)(F)C1)N1Cc2ccc(-c3cncc(Nc4ccc(-c5cn[nH]c5)cc4)n3)cc2C1`, the IC50 is 0.039 µM.
In the case of `Cn1c(C(=O)N2CC(F)(F)C2)cc2ccc(-c3nccc(Nc4ccc(-c5cn[nH]c5)cc4O)n3)cc21`, the IC50 was 0.034 µM.
The figure for `O=C(C1CCOCC1)N1Cc2ccc(-c3ncc(F)c(Nc4ccc(-c5cn[nH]c5)cc4)n3)cc2C1` is 0.162 µM; for `COCn1c(C(=O)N2CC(F)(F)C2)cc2ccc(-c3ncc(F)c(Nc4ccc(-c5cn[nH]c5)cc4)n3)cc21` it is 0.255 µM.
The result for `O=C(Oc1ccccc1)N1Cc2ccc(-c3nccc(Nc4ccc(-c5cn[nH]c5)cc4)n3)cc2C1` reads 0.114 µM.
The result for `CC1(C(=O)N2CCc3ccc(-c4ncc(F)c(Nc5ccc(-c6cn[nH]c6)cc5)n4)cc3C2)CC(F)(F)C1` reads 0.331 µM.
As for `O=C(C1CC(F)(F)C1)N1Cc2ccc(-c3nc(Nc4ccc(-c5cn[nH]c5)cc4)c4[nH]ccc4n3)cc2C1`, the IC50 is 0.029 µM.
For `C[C@@H](NC(=O)c1cc2ccc(-c3nccc(Nc4ccc5[nH]ncc5c4)n3)cc2[nH]1)c1ccc(C(F)(F)F)nc1`, the IC50 was 0.09 µM.
The result for `Cn1ccc2nc(-c3ccc4cc(C(=O)N5CC(F)(F)C5)n(C)c4c3)nc(Nc3ccc(-c4cn[nH]c4)cc3)c21` reads 0.076 µM; that for `Cc1cnc(-c2ccc3cc(C(=O)N4CC(F)(F)C4)n(C)c3c2)nc1Nc1ccc(-c2cn[nH]c2)cc1`, 0.019 µM; that for `O=C(C1CC(F)(F)C1)N1CCc2cc(-c3nccc(Nc4ccc(-c5cn[nH]c5)cc4)n3)ccc2C1`, 0.13 µM.
As to `COCn1c(C(=O)N2CC(F)(F)C2)cc2ccc(-c3nc4c(c(Nc5ccc(-c6cn[nH]c6)cc5)n3)CNC4)cc21`, the IC50 was 0.027 µM.
As for `O=C(C1CC(F)(F)C1)N1Cc2ccc(-c3nc(Nc4ccc5[nH]ncc5c4)c4sccc4n3)cc2C1`, the IC50 was 0.129 µM.
For the compound `C#CC1CN(C(=O)c2cc3ccc(-c4nccc(Nc5ccc(-c6cn[nH]c6)cc5)n4)cc3n2C)C1`, the IC50 is 0.322 µM.
For the compound `O=C(C1CC(F)(F)C1)N1Cc2ccc(-c3nc4c(c(Nc5ccc(-c6cn[nH]c6)cc5)n3)CNC4)cc2C1`, the IC50 was 0.01 µM.
The figure for `O=C(OC1CC(F)(F)C1)N1Cc2ccc(-c3nccc(Nc4ccc5[nH]ncc5c4)n3)cc2C1` is 0.019 µM.
The figure for `CC1(C(=O)N2Cc3ccc(-c4nccc(Nc5ccc(-c6cn[nH]c6)cc5)n4)cc3C2)CC(F)(F)C1` is 0.022 µM; for `O=C(c1cccnc1)N1Cc2ccc(-c3nccc(Nc4ccc(-c5cn[nH]c5)cc4)n3)cc2C1` it is 0.393 µM; for `CN1Cc2nc(-c3ccc4c(c3)CN(C(=O)C3CC(F)(F)C3)C4)nc(Nc3ccc(-c4cn[nH]c4)cc3)c2C1` it is 0.04 µM.
As to `CC(C)NC(=O)c1cc2ccc(-c3nc(Cc4ccccc4)cc(Nc4ccc5[nH]ncc5c4)n3)cc2[nH]1`, the IC50 is 0.35 µM.
The figure for `O=C(c1cc2ccc(-c3nccc(Nc4ccc(-c5cn[nH]c5)cc4)n3)cc2[nH]1)N1CCCC1` is 0.24 µM; for `O=C(NC1CCN(c2ccncc2Cl)CC1)c1cc2ccc(-c3nccc(Nc4ccc5[nH]ncc5c4)n3)cc2[nH]1` it is 0.014 µM; for `CCn1c(C(=O)N2CC(F)(F)C2)cc2ccc(-c3nccc(Nc4ccc(-c5cn[nH]c5)cc4)n3)cc21` it is 0.118 µM.
The result for `O=C(N1CCc2ccc(-c3nccc(Nc4ccc(-c5cn[nH]c5)cc4)n3)cc2C1)N1CC(F)(F)C1` reads 0.214 µM.
The figure for `CN1Cc2nc(-c3ccc4cc(C(=O)N5CC(F)(F)C5)n(C)c4c3)nc(Nc3ccc(-c4cn[nH]c4)cc3)c2C1` is 0.014 µM; for `Cc1[nH]ncc1-c1ccc(Nc2nc(-c3ccc4c(c3)CN(C(=O)C3CC(F)(F)C3)C4)ncc2F)cc1` it is 0.093 µM; for `Cn1c(C(=O)N2CC(F)(F)C2)cc2ccc(-c3nccc(Nc4ccc(-c5cn[nH]c5)cn4)n3)cc21` it is 0.039 µM.
For the compound `O=C(C1CCC(F)(F)CC1)N1CCc2ccc(-c3ncc(F)c(Nc4ccc(-c5cn[nH]c5)cc4)n3)cc2C1`, the IC50 is 0.477 µM.
As to `O=C(c1ccncc1)N1Cc2ccc(-c3nccc(Nc4ccc(-c5cn[nH]c5)cc4)n3)cc2C1`, the IC50 is 0.313 µM.
The result for `Cn1c(C(=O)N2CC(F)(F)C2)cc2ccc(-c3nccc(Nc4ccc(-c5cn[nH]c5)nc4)n3)cc21` reads 0.027 µM; that for `O=C(C1CC(F)(F)C1)N1Cc2ccc(-c3nc(Nc4ccc(-c5cn[nH]c5)cc4)c4sccc4n3)cc2C1`, 0.06 µM; that for `O=C(C1CC(F)(F)C1)N1CCc2ccc(-c3nccc(Nc4ccc(-c5cn[nH]c5)cc4)n3)cc2C1`, 0.214 µM.
The figure for `COc1cnc(-c2ccc3cc(C(=O)N4CC(F)(F)C4)[nH]c3c2)nc1Nc1ccc(-c2cn[nH]c2)cc1` is 0.023 µM; for `O=C(OC1CC(F)(F)C1)N1Cc2ccc(-c3ncc(F)c(Nc4ccc(-c5cn[nH]c5)cc4)n3)cc2C1` it is 0.069 µM; for `O=C(C1CC(F)(F)C1)N1Cc2ccc(-c3nc(Nc4ccc(-c5cn[nH]c5)cc4)c4occc4n3)cc2C1` it is 0.018 µM.
The figure for `COCn1c(C(=O)N2CC(F)(F)C2)cc2ccc(-c3ncnc(Nc4ccc(-c5cn[nH]c5)cc4)n3)cc21` is 0.427 µM; for `Cn1c(C(=O)N2CC(F)(F)C2)cc2ccc(-c3nc4c(c(Nc5ccc(-c6cn[nH]c6)cc5)n3)COC4)cc21` it is 0.01 µM.
As for `Cn1c(C(=O)N2CC(F)(F)C2)cc2ccc(-c3nc(Nc4ccc(-c5cn[nH]c5)cc4)c4occc4n3)cc21`, the IC50 was 0.08 µM.
Regarding `COc1cc(-c2cn[nH]c2)ccc1Nc1ccnc(-c2ccc3c(c2)CN(C(=O)C2CC(F)(F)C2)C3)n1`, the IC50 was 0.021 µM.
